{"source": "PubChem BioAssay (NCI)", "note": "Where “and” joins values, the source holds several entries; their conditions need not be identical. Equal entries are not always repeated.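 1) Cells in 96-well plates. 2) Compound, 48 h, 5 concentrations. 3) Linear interpolation between surrounding doses. 4) Unreached endpoint = highest concentration. GI50 = concentration required for 50% inhibition of growth. TGI: total growth inhibition.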", "data": [{"system": "MDA-MB-468 breast", "assay": "DTP human tumour cell line panel, 48 h", "values": [{"compound": "FC(F)c1nc2ccccc2n1-c1nc(N2CCOCC2)nc(N2CCOCC2)n1", "GI50": "135 nM and 124 nM", "TGI": "971 nM and 607 nM"}, {"compound": "C=C1C(=O)O[C@H]2[C@H]1CC/C(COC(=O)CSCCSCC(=O)OC/C1=C/CC[C@@]3(C)O[C@H]3[C@H]3OC(=O)C(=C)[C@@H]3CC1)=C\\CC[C@@]1(C)O[C@@H]21", "GI50": "1070 nM", "TGI": "2850 nM"}, {"compound": "CNC(=O)c1ccc(N2CCN(Cc3ccc4nc(C)c(=O)[nH]c4c3F)CC2)c(F)n1", "GI50": "27800 nM", "TGI": "> 100000 nM"}, {"compound": "COc1cc(/C=C2\\C(=O)Nc3cc(C)c(O)cc32)cc(OC)c1OC", "GI50": "1500 nM", "TGI": "5880 nM"}, {"compound": "C#CCOc1cccc(-c2ncnc3cc(NC(=O)CCl)ccc23)c1", "GI50": "1450 nM", "TGI": "3540 nM"}, {"compound": "Cn1cc(C2=C(c3cn(CCCCN)c4ccccc34)C(=O)NC2=O)c2ccccc21", "GI50": "> 25000 nM", "TGI": "> 25000 nM"}, {"compound": "COc1ccc(C(=O)/C=C/c2ccc(C)cc2)cc1OC", "GI50": "11400 nM", "TGI": "24600 nM"}, {"compound": "CN(C)S(=O)(=O)c1ccc(-c2nc(C(Cl)Cl)nc3cc(-c4ccc(F)cc4)nn23)cc1", "GI50": "1630 nM", "TGI": "4640 nM"}, {"compound": "Cc1ccc2c(n1)C(=O)C(Cl)=C(Nc1ccc(C)c(C)c1)C2=O", "GI50": "317 nM", "TGI": "1340 nM"}, {"compound": "COc1cc(NC(N)=NCCC(C)(C)Oc2ccc(C(F)(F)F)cc2)ncc1C#N", "GI50": "1070 nM", "TGI": "2440 nM"}, {"compound": "Cc1nn(-c2nc3ccccc3[nH]2)c(N)c1-c1ccc(Cl)cc1", "GI50": "2690 nM", "TGI": "> 100000 nM"}, {"compound": "Nc1ccc(C2=NN(c3ccccc3)C(c3ccc(Cl)cc3)C2)cc1", "note": "(stereo unspecified)", "GI50": "1660 nM", "TGI": "4090 nM"}, {"compound": "CCc1cccc(C)c1NC(=O)c1sc2nc3c(cc2c1N)CCCCC3", "GI50": "4180 nM", "TGI": "> 100000 nM"}, {"compound": "COC(=O)CCc1c[nH]c2ccc(N(CCCl)CCCl)cc12", "GI50": "311 nM", "TGI": "1810 nM"}, {"compound": "Cc1ccc(-c2csc(/N=C3\\C(=O)Nc4ccccc43)n2)cc1", "GI50": "1460 nM", "TGI": "3510 nM"}, {"compound": "CCC[CH2][Sn]([CH2]CCC)([CH2]CCC)[O]c1ccc(Cl)cc1Cl", "GI50": "105 nM", "TGI": "250 nM"}, {"compound": "CCOC(=O)c1sc(-c2ccc(OS(=O)(=O)c3ccc(Br)s3)c(C=O)c2)nc1C", "GI50": "2960 nM", "TGI": "9200 nM"}, {"compound": "CCCNNC(=O)/C=C/c1ccc(CNCCc2c(C)[nH]c3ccccc23)cc1", "GI50": "27.9 nM", "TGI": "529 nM"}, {"compound": "CCOC(=O)N1CCN(c2nc(Nc3cc(C)[nH]n3)c3ccccc3n2)CC1", "GI50": "1800 nM", "TGI": "8420 nM"}, {"compound": "O=c1c(Oc2ccc(F)cc2F)cc2cnc(NC3CCOCC3)nc2n1CCCO", "GI50": "> 25000 nM", "TGI": "> 25000 nM"}, {"compound": "Cc1ccc(C)c2c1C(O)(C#Cc1ccccc1)c1ccccc1C2(O)C#Cc1ccccc1", "note": "(stereo unspecified)", "GI50": "3570 nM", "TGI": "> 100000 nM"}, {"compound": "COC(=O)CCC(=O)NC1=C(Nc2ccc(OC)cc2)C(=O)c2ccccc2C1=O", "GI50": "3090 nM", "TGI": "12200 nM"}, {"compound": "CCN(Cc1cccc(F)c1)c1ccc(CO)c(Cl)c1", "GI50": "15.7 nM", "TGI": "38.1 nM"}, {"compound": "O=C(Nc1cccc(-n2ccc3c(NC(=O)c4ccccc4)nccc32)c1)Nc1cc(C(F)(F)F)cc(C(F)(F)F)c1", "GI50": "1550 nM", "TGI": "13600 nM"}, {"compound": "Cc1nc(SCC(=O)Nc2nc(-c3ccc(Cl)cc3)cs2)n(Nc2ccccc2)c1C", "GI50": "1450 nM", "TGI": "6270 nM"}, {"compound": "COc1cccc(-c2cc(=O)c3cc(OC)ccc3[nH]2)c1", "GI50": "982 nM", "TGI": "> 100000 nM"}, {"compound": "O=C(CO[N+](=O)[O-])Nc1ccc(C(=O)/C=C/c2ccc(Cl)cc2)cc1", "GI50": "2060 nM", "TGI": "5070 nM"}, {"compound": "COc1cc(OC)cc(N(CCNC(C)C)c2ccc3ncc(-c4cnn(C)c4)nc3c2)c1", "GI50": "3070 nM", "TGI": "13000 nM"}, {"compound": "CC[N+](CC)=c1sc2c(s1)C(c1ccc(Cl)cc1)Oc1ccc(Cl)cc1-2", "note": "(stereo unspecified)", "GI50": "1400 nM", "TGI": "4120 nM"}, {"compound": "COc1cc(-c2cc3ncccc3c3nc(N)c4cccnc4c23)cc(OC)c1OC", "GI50": "555 nM", "TGI": "66800 nM"}, {"compound": "O=S(=O)(Nc1ccccc1Cl)c1ccc(-c2cnc(C3CC3)o2)cc1", "GI50": "236 nM", "TGI": "6910 nM"}, {"compound": "CN[C@H]1C=C[C@@H]2/C=C(C)/C=C/[C@@H](C)[C@H]([C@H](C)[C@H](O)[C@@H](C)NC(C)=O)OC(=O)/C=C/C=C(C)\\C=C\\[C@]2(C)C1", "GI50": "< 1 nM and 4.9 nM"}, {"compound": "Fc1ccc2[nH]cc(-c3nonc3-c3c[nH]c4ccc(Br)cc34)c2c1", "GI50": "1940 nM", "TGI": "4720 nM"}, {"compound": "S=C(Nc1ccc(Br)cc1)Nc1ccc(Br)cc1", "GI50": "2260 nM", "TGI": "14000 nM"}, {"compound": "COC(=O)[C@@H](C)C[C@H](Cc1ccccc1)NC(=O)c1csc(CC[C@H](C(C)C)N(C)C(=O)[C@@H](NC(=O)[C@H]2CCCCN2C)C(C)C)n1", "GI50": "68.9 nM", "TGI": "275 nM"}, {"compound": "COc1ccc(-c2cn[nH]c2-c2cc(OC)c3c(c2)OCO3)cc1", "GI50": "152 nM", "TGI": "733 nM"}, {"compound": "CO[C@H]1/C=C/O[C@@]2(C)Oc3c(C)c(O)c4c(c3C2=O)C(=O)C(/C=N/N(c2ccccc2)c2ccccc2)=C(NC(=O)/C(C)=C\\C=C\\[C@H](C)[C@H](O)[C@@H](C)[C@@H](O)[C@@H](C)[C@H](OC(C)=O)[C@@H]1C)C4=O", "GI50": "2090 nM", "TGI": "4690 nM"}, {"compound": "CN(C)CCCOc1ccc(-c2ccc3ncc4c(c3c2)n(C2CCOCC2)c(=O)n4C)cn1", "GI50": "2080 nM", "TGI": "15700 nM"}, {"compound": "Cc1cnc(NC(=O)Nc2cc(Br)c(C)cc2OC[C@@H]2CNCCO2)cn1", "GI50": "3860 nM and 834 nM", "TGI": "> 10000 nM and 5490 nM"}, {"compound": "OCc1ccc(-c2ccc(-c3ccc(CO)o3)[se]2)o1", "GI50": "219 nM", "TGI": "704 nM"}, {"compound": "COC(=O)c1c2c(c[n+]([O-])c1C)C(=O)C=CC2=O", "GI50": "914 nM", "TGI": "3010 nM"}]}]}
